Results: PMC4658394 (ChemMedChem, 2015)

Tests used:
MMP-12 = MMP-12 (Homo sapiens, UniProt P39900); assay: MMP-12 fluorogenic substrate assay with competing metalloprotein MT; conditions: MMP-12 0.68 nM
MMP-2 = biological target: T1, MMP-2 (Homo sapiens, UniProt P08253); assay: MMP-2 fluorogenic substrate assay with competing metalloproteins; format: biochemical; conditions: MMP-2 2.7 nM
T1 sequence (P08253 110-660): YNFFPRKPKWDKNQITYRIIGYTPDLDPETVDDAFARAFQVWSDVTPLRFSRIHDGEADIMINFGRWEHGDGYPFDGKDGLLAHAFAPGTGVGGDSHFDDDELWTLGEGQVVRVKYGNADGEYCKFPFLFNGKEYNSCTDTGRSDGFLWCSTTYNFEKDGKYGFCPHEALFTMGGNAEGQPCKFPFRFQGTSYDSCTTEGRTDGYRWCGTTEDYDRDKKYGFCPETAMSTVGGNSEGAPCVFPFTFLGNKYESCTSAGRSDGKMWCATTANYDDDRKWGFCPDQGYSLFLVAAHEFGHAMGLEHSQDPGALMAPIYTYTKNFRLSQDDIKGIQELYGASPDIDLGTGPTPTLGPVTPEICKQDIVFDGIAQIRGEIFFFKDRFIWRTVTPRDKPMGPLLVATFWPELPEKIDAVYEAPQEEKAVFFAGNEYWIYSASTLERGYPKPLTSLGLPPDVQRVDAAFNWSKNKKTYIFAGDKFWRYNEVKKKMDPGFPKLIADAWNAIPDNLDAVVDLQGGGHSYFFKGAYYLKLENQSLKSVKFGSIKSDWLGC

HDAC-1 = HDAC-1 (Homo sapiens, UniProt Q13547); assay: HDAC-1 fluorogenic assay with competing metalloprotein MT; format: biochemical; conditions: 53 nM SAHA, HDAC-1 0.25 μM, various concentrations of MT
HDAC-6 = biological target: T2, HDAC-6 (Homo sapiens, UniProt Q9UBN7); assay: HDAC-6 fluorogenic assay with competing metalloprotein MT; format: biochemical; conditions: 22 nM SAHA, HDAC-6 0.16 μM, various concentrations of MT
T2 sequence (Q9UBN7 1-1215): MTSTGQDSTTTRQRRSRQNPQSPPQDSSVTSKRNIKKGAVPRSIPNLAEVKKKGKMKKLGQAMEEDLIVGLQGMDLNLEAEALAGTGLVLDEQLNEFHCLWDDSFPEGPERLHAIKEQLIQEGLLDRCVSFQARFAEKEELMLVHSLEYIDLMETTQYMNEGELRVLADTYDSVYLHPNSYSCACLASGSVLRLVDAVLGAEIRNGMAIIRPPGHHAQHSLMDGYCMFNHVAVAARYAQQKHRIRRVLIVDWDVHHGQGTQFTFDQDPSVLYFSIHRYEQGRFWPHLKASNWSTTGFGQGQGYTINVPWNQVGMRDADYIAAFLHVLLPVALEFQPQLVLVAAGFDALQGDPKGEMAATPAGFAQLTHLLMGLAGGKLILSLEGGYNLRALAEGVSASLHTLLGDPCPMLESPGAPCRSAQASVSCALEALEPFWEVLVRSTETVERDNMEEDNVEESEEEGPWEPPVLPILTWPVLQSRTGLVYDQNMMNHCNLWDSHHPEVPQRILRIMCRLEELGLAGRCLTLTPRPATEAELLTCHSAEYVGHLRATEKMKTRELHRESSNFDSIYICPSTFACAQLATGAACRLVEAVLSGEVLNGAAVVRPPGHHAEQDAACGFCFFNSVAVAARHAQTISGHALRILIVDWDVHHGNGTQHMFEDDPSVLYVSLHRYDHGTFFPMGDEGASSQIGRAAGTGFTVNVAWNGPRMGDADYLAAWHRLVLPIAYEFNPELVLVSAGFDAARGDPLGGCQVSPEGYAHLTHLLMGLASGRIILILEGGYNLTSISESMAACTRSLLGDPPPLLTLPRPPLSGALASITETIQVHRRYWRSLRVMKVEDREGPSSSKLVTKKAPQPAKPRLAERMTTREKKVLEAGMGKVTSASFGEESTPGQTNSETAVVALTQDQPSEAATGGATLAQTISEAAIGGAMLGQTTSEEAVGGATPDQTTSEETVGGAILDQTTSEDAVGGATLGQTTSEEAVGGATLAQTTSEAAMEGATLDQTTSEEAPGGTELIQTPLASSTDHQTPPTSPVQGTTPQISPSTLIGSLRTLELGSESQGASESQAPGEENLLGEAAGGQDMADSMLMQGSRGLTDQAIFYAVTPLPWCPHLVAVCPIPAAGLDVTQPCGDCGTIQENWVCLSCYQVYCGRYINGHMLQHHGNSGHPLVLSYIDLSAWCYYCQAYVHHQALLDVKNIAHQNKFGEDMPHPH

Sequence of MMP-12 (P39900 106-470): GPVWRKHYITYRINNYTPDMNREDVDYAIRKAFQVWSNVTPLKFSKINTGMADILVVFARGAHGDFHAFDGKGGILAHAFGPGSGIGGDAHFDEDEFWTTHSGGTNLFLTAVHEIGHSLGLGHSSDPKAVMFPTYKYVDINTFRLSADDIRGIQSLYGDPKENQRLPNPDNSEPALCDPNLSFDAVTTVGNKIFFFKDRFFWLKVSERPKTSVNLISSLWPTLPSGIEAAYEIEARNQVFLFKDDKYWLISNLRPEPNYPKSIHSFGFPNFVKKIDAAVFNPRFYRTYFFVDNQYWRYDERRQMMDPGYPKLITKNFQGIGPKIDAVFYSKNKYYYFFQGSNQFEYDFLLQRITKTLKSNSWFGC
Sequence of HDAC-1 (Q13547 whole entry): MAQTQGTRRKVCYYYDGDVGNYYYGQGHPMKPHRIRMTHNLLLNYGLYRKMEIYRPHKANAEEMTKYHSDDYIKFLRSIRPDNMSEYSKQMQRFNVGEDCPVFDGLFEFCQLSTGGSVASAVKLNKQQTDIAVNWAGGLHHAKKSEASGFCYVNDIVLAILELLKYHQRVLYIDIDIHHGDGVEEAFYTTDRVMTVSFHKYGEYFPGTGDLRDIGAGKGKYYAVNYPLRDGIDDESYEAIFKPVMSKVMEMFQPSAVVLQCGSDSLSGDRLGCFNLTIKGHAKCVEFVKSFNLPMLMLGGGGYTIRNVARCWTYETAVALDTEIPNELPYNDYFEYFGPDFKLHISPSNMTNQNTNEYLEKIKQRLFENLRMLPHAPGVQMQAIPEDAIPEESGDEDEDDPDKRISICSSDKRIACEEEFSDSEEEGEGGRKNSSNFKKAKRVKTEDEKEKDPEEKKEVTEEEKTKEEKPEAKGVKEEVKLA

In the case of `O=C(NCc1ccc(-c2ccccc2)cc1)c1cccc(=O)n1O` [1,2-HOPO-2], the “effect of large excess of MT on activity against MMP-12” value (MMP-12; 30 nM inhibitor, up to 9 μM MT (300 equiv over inhibitor)) is reported as “did not perturb the activity” and the IC50 (MMP-12; read-out: IC50 against MMP-12) is reported as 30 nM.
With `COc1ccc(S(=O)(=O)N(Cc2cccnc2)[C@@H](C(=O)NO)C(C)C)cc1` [CGS] the “MMP-2 inhibition in the presence of combinations of competing proteins” value (MMP-2; CGS 3 nM, MT, Mb, Tf, hCAII combinations 400 nM each) was “no drop in inhibition”, the “specificity for MMP-2 in the presence of excess MT” value (MMP-2; CGS 3 nM or NSA 30 nM, MT up to 50 equiv over MPi) was “maintain their specificity” and the “effect of Mb, Tf or hCAII as competing protein on MMP-2 inhibition” value (MMP-2; NSA 30 nM or CGS 3 nM, up to 166 equiv over CGS, up to 50 equiv over NSA) was “not titrating the MPi away from the MMP-2 target”.
`O=C(CCCCCCC(=O)Nc1ccccc1)NO` [SAHA, suberolylanilide hydroxamic acid] was tested, and the “change in SAHA activity against HDAC-1 with increasing MT” value (HDAC-1) was “no substantial decrease” and the “change in SAHA activity against HDAC-6 with increasing MT” value (HDAC-6) was “no substantial decrease”.
